Experimental data taken from patent US9961897B2, “Fungicidal pyrazoles” (E. I. DU PONT DE NEMOURS AND COMPANY, priority 2013, dated 2018).
Marks after values point to notes of the source that are not given here.

Legend:
Assay type in all cases: in vivo
[1] = system: Septoria nodorum; assay: Test E: Septoria glume blotch, preventive spray on wheat seedlings, visual disease rating; conditions: 200 ppm test suspension sprayed to run-off on wheat seedlings; 100 = 100% disease control, 0 = no control
Text: (§1) General protocol for preparing test suspensions for Tests A-E: the test compounds were first dissolved in acetone in an amount equal to 3% of the final volume and then suspended at the desired concentration (in ppm) in acetone and purified water (50/50 mix by volume) containing 250 ppm of the surfactant Trem® 014 (polyhydric alcohol esters). The resulting test suspensions were then used in Tests A-E. Spraying a 200 ppm test suspension to the point of run-off on the test plants was the equivalent of a rate of 800 g/ha.
(§2) The test suspension was sprayed to the point of run-off on wheat seedlings. The following day the seedlings were inoculated with a spore suspension of Septoria nodorum (the causal agent of Septoria glume blotch) and incubated in a saturated atmosphere at 24° C. for 48 h, and then moved to a growth chamber at 20° C. for 9 days, after which time visual disease ratings were made.
(§3) Results for Tests A-E are given in Table A. In the Table, a rating of 100 indicates 100% disease control and a rating of 0 indicates no disease control (relative to the controls). All results are for compounds tested at 200 ppm except where followed by an asterisk “*” which indicates the compound was tested at 250 ppm. A dash (-) indicates no test results.

[2] = system: Blumeria graminis f. sp. tritici; assay: Test D: wheat powdery mildew, preventive spray on wheat seedlings, visual disease rating; conditions: 100 = 100% disease control, 0 = no control
Text: as §1
The test suspension was sprayed to the point of run-off on wheat seedlings. The following day the seedlings were inoculated with a spore dust of Blumeria graminis f. sp. tritici, also known as Erysiphe graminis f. sp. tritici (the causal agent of wheat powdery mildew) and incubated in a growth chamber at 20° C. for 8 days, after which time visual disease ratings were made.
as §3

[3] = system: Botrytis cinerea; assay: Test C: tomato Botrytis, preventive spray on tomato seedlings, visual disease rating; conditions: 100 = 100% disease control, 0 = no control
Text: as §1
as §2, with “tomato” for “wheat”, “Botrytis cinerea” for “Septoria nodorum”, “tomato Botrytis)” for “Septoria glume blotch)”, “20°” for “24°”, “24°” for “20°”, “3” for “9”
as §3

[4] = system: Puccinia recondita f. sp. tritici; assay: Test A: wheat leaf rust, preventive spray on wheat seedlings, visual disease rating; conditions: 100 = 100% disease control, 0 = no control
Text: as §1
as §2, with “Puccinia recondita f. sp. tritici” for “Septoria nodorum”, “wheat leaf rust)” for “Septoria glume blotch)”, “20°” for “24°”, “24” for “48”, “6” for “9”
as §3

[5] = system: Septoria tritici; assay: Test B: wheat leaf blotch, preventive spray on wheat seedlings, visual disease rating; conditions: 100 = 100% disease control, 0 = no control
Text: as §1
as §2, with “tritici” for “nodorum”, “wheat leaf” for “Septoria glume”, “19” for “9”
as §3

[6] = 200 ppm test suspension sprayed to run-off on wheat seedlings
[7] = 200 ppm test suspension sprayed to run-off on tomato seedlings
[8] = 250 ppm (asterisk) test suspension sprayed to run-off on wheat seedlings
[9] = 250 ppm (asterisk) test suspension sprayed to run-off on tomato seedlings

Question: What does the source list for Cc1nn(C)c(-c2c(F)cc(/C=C/C3CC3)cc2F)c1C(O)c1ccc(F)cc1Cl (stereo not drawn) [Compound 1]?
Answer: Test E disease control rating [1]: 0%; Test D disease control rating [2, 6]: 98%; Test C disease control rating [3, 7]: 0%; Test A disease control rating [4, 6]: 68%

Question: For Cc1nn(C)c(-c2c(F)cc(C#CC3CC3)cc2F)c1C(O)c1ccc(F)cc1Cl (stereo not drawn) [Compound 2], which “Test E disease control rating” value [1] is on record?
Answer: 100%

Question: What about the “Test D disease control rating” value [2, 6] of the same molecule?
Answer: 98%

Question: What about the “Test C disease control rating” value [3, 7] of the same molecule?
Answer: 98%

Question: And the “Test A disease control rating” value [4, 6]?
Answer: 95%

Question: Which results are given for Cc1nn(C)c(-c2c(F)cc(-n3cccn3)cc2F)c1C(O)c1ccc(F)cc1Cl (stereo not drawn) [Compound 3, α-(2-chloro-4-fluorophenyl)-5-[2,6-difluoro-4-(1H-pyrazol-1-yl)phenyl]-1,3-dimethyl-1H-pyrazole-4-methanol]?
Answer: Test E disease control rating [1]: 98%; Test D disease control rating [2, 6]: 81%; Test C disease control rating [3, 7]: 59%; Test A disease control rating [4, 6]: 68%

Question: For Cc1nn(C)c(-c2c(F)cc(-n3ccc(C(F)(F)F)n3)cc2F)c1C(O)c1ccc(F)cc1Cl (stereo not drawn) [Compound 4], which “Test E disease control rating” value [1] is on record?
Answer: 0%

Question: What about the “Test D disease control rating” value [2, 6] of the same molecule?
Answer: 0%

Question: What about the “Test C disease control rating” value [3, 7] of the same molecule?
Answer: 0%

Question: And the “Test A disease control rating” value [4, 6]?
Answer: 0%

Question: For C#CCOc1cc(F)c(-c2c(C(O)c3ccc(F)cc3Cl)c(C)nn2C)c(F)c1 (stereo not drawn) [Compound 5], which “Test B disease control rating” value [5, 6] is on record?
Answer: 99%

Question: What about the “Test D disease control rating” value [2, 6] of the same molecule?
Answer: 99%

Question: What about the “Test C disease control rating” value [3, 7] of the same molecule?
Answer: 98%

Question: And the “Test A disease control rating” value [4, 6]?
Answer: 100%

Question: Which results are given for C=CCOc1cc(F)c(-c2c(C(O)c3ccc(F)cc3Cl)c(C)nn2C)c(F)c1 (stereo not drawn) [Compound 6]?
Answer: Test B disease control rating [5, 6]: 99%; Test D disease control rating [2, 6]: 95%; Test C disease control rating [3, 7]: 99%; Test A disease control rating [4, 6]: 99%

Question: Which results are given for Cc1nn(C)c(-c2c(F)cc(C3CO3)cc2F)c1C(O)c1ccc(F)cc1Cl (stereo not drawn) [Compound 8]?
Answer: Test B disease control rating [5, 6]: 95%; Test E disease control rating [1]: 0%; Test D disease control rating [2, 6]: 27%; Test C disease control rating [3, 7]: 30%; Test A disease control rating [4, 6]: 90%

Question: How did the “Test B disease control rating” value [5, 6] turn out when Cc1nn(C)c(-c2c(F)cc(OCCC(C)C)cc2F)c1C(O)c1ccc(F)cc1Cl (stereo not drawn) [Compound 9, α-(2-chloro-4-fluorophenyl)-5-[2,6-difluoro-4-(3-methylbutoxy)phenyl]-1,3-dimethyl-1H-pyrazole-4-methanol] was run?
Answer: 87%

Question: What about the “Test E disease control rating” value [1] of the same molecule?
Answer: 0%

Question: And the “Test D disease control rating” value [2, 8]?
Answer: 21* %

Question: And the “Test C disease control rating” value [3, 7]?
Answer: 0%

Question: And the “Test A disease control rating” value [4, 6]?
Answer: 9%

Question: With Cc1nn(C)c(-c2c(F)cc(OCC3CC3)cc2F)c1C(O)c1ccc(F)cc1Cl (stereo not drawn) [Compound 10, α-(2-chloro-4-fluorophenyl)-5-[4-(cyclopropylmethoxy)-2,6-difluorophenyl]-1,3-dimethyl-1H-pyrazole-4-methanol] as the molecule, how does the “Test B disease control rating” value [5, 6] read?
Answer: 96%

Question: What about the “Test E disease control rating” value [1] of the same molecule?
Answer: 100%

Question: What about the “Test D disease control rating” value [2, 6] of the same molecule?
Answer: 94%

Question: What about the “Test C disease control rating” value [3, 7] of the same molecule?
Answer: 12%

Question: And the “Test A disease control rating” value [4, 6]?
Answer: 99%

Question: With Cc1nn(C)c(-c2c(F)cc(/C=N/O)cc2F)c1C(O)c1ccc(F)cc1Cl (stereo not drawn) [Compound 11] as the molecule, how does the “Test B disease control rating” value [5, 6] read?
Answer: 98%

Question: What about the “Test E disease control rating” value [1] of the same molecule?
Answer: 0%

Question: What about the “Test D disease control rating” value [2, 6] of the same molecule?
Answer: 69%

Question: And the “Test C disease control rating” value [3, 7]?
Answer: 15%

Question: What about the “Test A disease control rating” value [4, 6] of the same molecule?
Answer: 86%

Question: With CCCCOc1cc(F)c(-c2c(C(O)c3ccc(F)cc3Cl)c(C)nn2C)c(F)c1 (stereo not drawn) [Compound 13] as the molecule, how does the “Test B disease control rating” value [5, 6] read?
Answer: 98%

Question: What about the “Test D disease control rating” value [2, 6] of the same molecule?
Answer: 98%

Question: And the “Test C disease control rating” value [3, 7]?
Answer: 0%

Question: What about the “Test A disease control rating” value [4, 6] of the same molecule?
Answer: 0%

Question: What does the source list for CO/N=C/c1cc(F)c(-c2c(C(O)c3ccc(F)cc3Cl)c(C)nn2C)c(F)c1 (stereo not drawn) [Compound 14]?
Answer: Test B disease control rating [5, 6]: 99%; Test D disease control rating [2, 6]: 95%; Test C disease control rating [3, 7]: 39%; Test A disease control rating [4, 6]: 100%

Question: Which “Test B disease control rating” value [5, 8] does the source give for Cc1nn(C)c(-c2c(F)cc(OCC3CCCO3)cc2F)c1C(O)c1ccc(F)cc1Cl (stereo not drawn) [Compound 15] here?
Answer: 100* %

Question: What about the “Test D disease control rating” value [2, 8] of the same molecule?
Answer: 95* %

Question: And the “Test C disease control rating” value [3, 9]?
Answer: 98* %

Question: And the “Test A disease control rating” value [4, 8]?
Answer: 98* %

Question: With Cc1nn(C)c(-c2c(F)cc(OCC3OCCO3)cc2F)c1C(O)c1ccc(F)cc1Cl (stereo not drawn) [Compound 19] as the molecule, how does the “Test B disease control rating” value [5, 8] read?
Answer: 99* %

Question: And the “Test D disease control rating” value [2, 8]?
Answer: 95* %

Question: And the “Test C disease control rating” value [3, 9]?
Answer: 100* %

Question: And the “Test A disease control rating” value [4, 8]?
Answer: 100* %
